| SMILES | melting point [°C] |
| --- | --- |
| CS(=O)(=O)C(C#N)=Cc1ccc2[nH]ccc2c1 [Example 3, 3-(1 H-indol-5-yl)-2-methanesulfonylacrylonitrile] | 184 to 185 |
| N#CC(=Cc1ccc2[nH]ccc2c1)S(=O)(=O)c1ccc([N+](=O)[O-])cc1 [Example 2, 3-(1H-indol-5-yl)-2-(4-nitrobenzenesulfonyl)acrylonitrile] | 219 to 221 |

Reference: patent US20080113944A1, “Novel Indole Derivatives” (Novo Nordisk A/S, priority 2004, published 2008)
